{
  "source": "patent US20230320967A1",
  "about": "“COMPOSITION, USE OF THE COMPOSITION, COSMETIC METHOD FOR MODULATING THE PRODUCTION OF SEBUM” (CHEMYUNION LTDA., priority 2020, published 2023)",
  "key": {"[1]": {"test_system": "SEBO662AR cell model", "test": "Cytotoxicity in vitro (non-cytotoxic concentration)", "type": "cell-based, human", "conditions": "SEBO662AR study"}, "[2]": {"test_system": "SEBO662AR cell model", "test": "Sebum production inhibition in SEBO662AR sebocyte model, androgen-free lipogenic medium, Bodipy lipid droplet imaging", "type": "cell-based, human", "conditions": "500 micromolar, comparable to cerulenin 10 micromolar", "experimental": "Sebocytes are cells found in the sebaceous glands and that, in the differentiation process, accumulate lipid droplets in their interior. The SEBO662AR cell model is an immortalized lineage of human sebocytes that responds to lipogenic stimuli and that can be used to select potential sebum production inhibitors.\nA sebum production inhibition study was conducted in the SEBO662AR cell model cultivated in androgen-free lipogenic medium, and the formation of droplets was monitored by using Bodipy® fluorescent probes and image analysis. As an inhibition reference, cerulenin was applied at a concentration of 10 micromolar—a fatty acid synthase inhibitor which, although effective in reducing sebum production, is a very labile molecule as it has unsaturations and an epoxy group in its structure, so that its use is restricted to laboratory testing."}, "[3]": {"test_system": "skin oiliness (sebum) of female volunteers with mixed or oily skin", "test": "Clinical testing: face oiliness by sebum-metric index, Sebumeter SM 815", "type": "in vivo, human", "conditions": "0.01% w/w in cosmetic base (BC-tripeptide), twice a day, 20 female volunteers", "experimental": "For the clinical efficacy evaluation, the tripeptide (Glu-Val-Phe) was applied in a cosmetic base (BC) at a concentration of 0.01% (w/w) and compared to a placebo base, without active (Table 2).\nThe study was conducted with 20 female volunteers, between 18 and 50 years old, with mixed or oily skin, oily skin with a sebum-metric index above 100, who used the product (BC-placebo or BC-tripeptide) twice a day (morning and evening) for 28 days.\nThe participants were referred to the Instrumental Sector for acclimatizing for at least 20 minutes, in a room with controlled temperature and humidity (T=20±2° C. and RH=50±5%). After the acclimatizing period, sebum-metrics measurements were performed on the forehead. […]\nThe Sebumeter photometrically measures the increase in transparency of a special plastic strip that becomes translucent when coated with sebum. […] The strip is supported by a mirror which presses it against the skin of the region to be evaluated with a fixed pressure of 10N by means of a spring. […] The strip transparency is evaluated by a photocell present in the device where the plastic strip is inserted, and the light transmission represents the amount of sebum per area and the results are expressed in absolute values (μg sebum/cm^2). […]"}},
  "note": "Peptide text beside a SMILES is read from it.",
  "data": [
    {"compound": "CC(C)[C@H](NC(=O)[C@@H](N)CCC(=O)O)C(=O)N[C@@H](Cc1ccccc1)C(=O)O", "note": "[SEQ ID No. 1, H-Glu-Val-Phe-OH] (H-Glu-Val-Phe-OH)", "values": [
      {"measurement": "higher non-cytotoxic concentration", "setting": "[1]", "result": 500, "unit": "µM"},
      {"measurement": "reduction in sebum production", "setting": "[2]", "result": 28, "unit": "%"},
      {"measurement": "decrease of the average of the sebum-metric indices vs initial time (D0)", "setting": "[3]; after 14 days", "result": 31.54, "unit": "%"},
      {"measurement": "reduction of average oiliness vs initial time (D0)", "setting": "[3]; after 28 days", "result": 29.75, "unit": "%"}
    ]}
  ]
}
